Measured values from article PMC12368479, “Inhibition of the Clathrin Terminal Domain—Amphiphysin Protein–Protein Interaction. Probing the Pitstop 2 Aromatic Moiety” (Chemmedchem, 2025).
Like-named read-outs stand apart in the source and are kept apart here.

Experiments:
[1] = target: T1, full length human Dynamin I (Homo sapiens, UniProt Q05193); test: Dynamin GTPase activity, Malachite Green phosphate detection assay; type: biochemical
T1 construct: full length human Dynamin I expressed in Sf21 insect cells; made in house; host or cells: Sf21 insect cells
T1 sequence (Q05193 1-864): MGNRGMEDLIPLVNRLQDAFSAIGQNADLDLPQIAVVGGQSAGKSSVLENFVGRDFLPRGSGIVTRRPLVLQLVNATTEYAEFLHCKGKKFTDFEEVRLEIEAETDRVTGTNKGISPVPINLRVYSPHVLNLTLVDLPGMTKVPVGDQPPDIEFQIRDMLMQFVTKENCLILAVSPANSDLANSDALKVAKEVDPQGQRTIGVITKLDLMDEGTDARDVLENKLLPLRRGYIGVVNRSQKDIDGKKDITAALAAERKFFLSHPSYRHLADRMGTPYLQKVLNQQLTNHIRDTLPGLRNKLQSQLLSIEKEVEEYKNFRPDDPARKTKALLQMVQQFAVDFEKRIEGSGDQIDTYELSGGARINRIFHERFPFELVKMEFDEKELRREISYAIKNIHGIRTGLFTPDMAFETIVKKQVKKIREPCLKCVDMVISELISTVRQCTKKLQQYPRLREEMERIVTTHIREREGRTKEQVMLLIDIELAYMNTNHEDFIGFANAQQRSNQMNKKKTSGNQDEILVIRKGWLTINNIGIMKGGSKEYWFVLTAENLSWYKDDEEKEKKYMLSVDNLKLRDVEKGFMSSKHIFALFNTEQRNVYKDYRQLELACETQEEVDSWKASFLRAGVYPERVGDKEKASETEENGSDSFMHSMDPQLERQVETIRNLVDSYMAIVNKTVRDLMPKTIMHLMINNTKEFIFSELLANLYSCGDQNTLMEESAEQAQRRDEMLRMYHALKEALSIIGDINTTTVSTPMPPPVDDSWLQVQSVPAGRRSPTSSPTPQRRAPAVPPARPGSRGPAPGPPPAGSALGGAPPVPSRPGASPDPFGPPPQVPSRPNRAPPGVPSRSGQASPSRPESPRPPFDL
Protocol: Dynamin GTPase activity was determined in vitro using the Malachite Green phosphate detection absorbance‐based assay within a 96‐well plate format as described previously. The enzyme source was full length human Dynamin I expressed in Sf21 insect cells and affinity‐purified on GST‐Amph2‐SH3 (rat Amphiphysin 2 (494–588)).^[ [56] ^]

[2] = target: T2, clathrin heavy chain NTD (amino acids 1–364) – amphiphysin 1 B/C domain protein–protein interaction (NTD‐PPI) (Homo sapiens, UniProt Q00610); test: ELISA-based clathrin inhibitor binding assay (NTD-PPI); conditions: ELISA; for IC50: read-out: NTD‐PPI IC50
T2 construct: GST‐tagged clathrin heavy chain NTD (amino acids 1–364); made in house
T2 sequence (Q00610 1-364): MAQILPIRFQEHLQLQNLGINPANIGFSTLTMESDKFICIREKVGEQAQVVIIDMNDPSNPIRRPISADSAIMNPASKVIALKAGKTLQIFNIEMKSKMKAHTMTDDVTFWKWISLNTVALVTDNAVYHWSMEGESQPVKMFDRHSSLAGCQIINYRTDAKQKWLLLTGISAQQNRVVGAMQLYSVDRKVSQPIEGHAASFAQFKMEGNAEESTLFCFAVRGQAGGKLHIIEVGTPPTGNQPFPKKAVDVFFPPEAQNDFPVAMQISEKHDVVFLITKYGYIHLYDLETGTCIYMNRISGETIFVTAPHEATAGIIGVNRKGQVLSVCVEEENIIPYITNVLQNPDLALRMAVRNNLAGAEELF
Protocol: The clathrin inhibitor assay was based inhibition of protein–protein interaction (PPI) between clathrin and amphiphysin as described in our previous report.^[ [45], [54] ^] Bacterially expressed recombinant purified His6‐tagged amphiphysin 1 B/C domain (which comprises both the clathrin and the AP‐2 binding sites, amino acids 250‐578^[ [55] ^]) in screening buffer (20 mM HEPES, pH 7.4, 50 mM NaCl, 1 mM DTT, 1 mM PMSF) was added to a 384 well ELISA plate (Corning Maxisorp 3700) and bound to the plastic for 1 h at room temperature. […] Following extensive washes (with 20 mM HEPES, pH 7.4, 50 mM NaCl, 0.05% Tween 20), chemical compounds diluted in DMSO (10 μL) were added and incubated together with bacterially expressed recombinant GST‐tagged clathrin heavy chain NTD (amino acids 1–364) for 1 h at room temperature in screening buffer. After 3 washes, horseradish peroxidase‐coupled anti‐GST antibodies were added in screening buffer and the plate incubated for 40 min at room temperature. Following additional washes, 50 μL TMB (3,3′,5,5′‐tetramethylbenzidine) (Pierce Biotechnology) chromogenic substrate of horseradish peroxidase was added, and the plate was incubated for 10 min before the reaction was terminated by adding 50 μL 1N sulfuric acid to produce a yellow colour. The amount of bound protein was determined by spectrophotometric measurement in a plate reader. Relative binding was calculated as a percentage of DMSO control.

[3] = Table 1, library 1, n = 1 unless noted (19: n = 2), '–' = not active at 150 μM, read-out: Dyn 1 IC50
[4] = Table 1, library 1, average of duplicate measurements (n=2)
[5] = values quoted in running text (section 2.2), read-out: Dynamin IC50
[6] = Table 2, library 2, n = 3, triplicate, '–' = not active at 100 μM, read-out: Dyn 1 IC50
[7] = Table 2, library 2, average of duplicate measurements (n=2)
[8] = Table 3, library 3, average of duplicate measurements (n = 2)

| SMILES | IC50 [1, 3] [µM] | IC50 [1, 6] [µM] | also measured |
| --- | --- | --- | --- |
| CC(C)(C)c1ccc(/C=C2\SC(NS(=O)(=O)c3cccc4ccccc34)=NC2=O)cc1 [compound 20, (Z)‐N‐(5‐(4‐(tert‐butyl)benzylidene)‐4‐oxo‐4,5‐dihydrothiazol‐2‐yl)naphthalene‐1‐sulfonamide] | > 150 |  |  |
| CC(C)c1ccc(/C=C2\SC(NS(=O)(=O)c3cccc4ccccc34)=NC2=O)cc1 [compound 21, (Z)‐N‐(5‐(4‐isopropylbenzylidene)‐4‐oxo‐4,5‐dihydrothiazol‐2‐yl)naphthalene‐1‐sulfonamide] | > 150 |  | IC50 [2, 4]: 4.1 µM |
| CCCc1ccc(/C=C2\SC(NS(=O)(=O)c3cccc4ccccc34)=NC2=O)cc1 [compound 22, (Z)‐N‐(4‐oxo‐5‐(4‐propylbenzylidene)‐4,5‐dihydrothiazol‐2‐yl)naphthalene‐1‐sulfonamide] | ~91 |  | IC50 [1, 5]: 91 µM |
| CCCCc1ccc(/C=C2\SC(NS(=O)(=O)c3cccc4ccccc34)=NC2=O)cc1 [compound 23, (Z)‐N‐(5‐(4‐butylbenzylidene)‐4‐oxo‐4,5‐dihydrothiazol‐2‐yl)naphthalene‐1‐sulfonamide] | ~103 |  | IC50 [1, 5]: 103 µM |
| O=C1N=C(NS(=O)(=O)c2cccc3ccccc23)S/C1=C\c1cccc(O)c1O [compound 24, (Z)‐N‐(5‐(2,3‐dihydroxybenzylidene)‐4‐oxo‐4,5‐dihydrothiazol‐2‐yl)naphthalene‐1‐sulfonamide] |  | 85 | fold less active (NTD‐PPI) than 25 and 27 ([2]; relative to 2,4‐dihydroxyphenyl 25 and 3,4‐dihydroxyphenyl 27): 3 fold; IC50 [2, 7]: 3.9 µM |
| O=C1N=C(NS(=O)(=O)c2cccc3ccccc23)S/C1=C\c1ccc(O)c(O)c1 [compound 27, (Z)‐N‐(5‐(3,4‐dihydroxybenzylidene)‐4‐oxo‐4,5‐dihydrothiazol‐2‐yl)naphthalene‐1‐sulfonamide] |  | 50.4 ± 8.4 |  |
| O=C1N=C(NS(=O)(=O)c2cccc3ccccc23)S/C1=C\c1ccc(O)c(O)c1O [compound 28, (Z)‐N‐(4‐oxo‐5‐(2,3,4‐trihydroxybenzylidene)‐4,5‐dihydrothiazol‐2‐yl)naphthalene‐1‐sulfonamide] |  | 34.3 ± 3.4 |  |
| COc1cccc(/C=C2\SC(NS(=O)(=O)c3cccc4ccccc34)=NC2=O)c1OC [compound 29, (Z)‐N‐(5‐(2,3‐dimethoxybenzylidene)‐4‐oxo‐4,5‐dihydrothiazol‐2‐yl)naphthalene‐1‐sulfonamide] |  | > 100 |  |
| COc1ccc(/C=C2\SC(NS(=O)(=O)c3cccc4ccccc34)=NC2=O)cc1OC [compound 31, (Z)‐N‐(5‐(3,4‐dimethoxybenzylidene)‐4‐oxo‐4,5‐dihydrothiazol‐2‐yl)naphthalene‐1‐sulfonamide] |  | 91 | IC50 [2, 7]: 2.2 µM |
| O=C1N=C(NS(=O)(=O)c2cccc3ccccc23)S/C1=C\C1CC=CCC1 (centres unmarked) [compound 39, (Z)‐N‐(5‐(cyclohex‐3‐en‐1‐ylmethylene)‐4‐oxo‐4,5‐dihydrothiazol‐2‐yl)naphthalene‐1‐sulfonamide] |  |  | IC50 [2, 8]: 4.3 µM |
| O=C1N=C(NS(=O)(=O)c2cccc3ccccc23)S/C1=C\C1CCCCC1 [compound 40, (Z)‐N‐(5‐(cyclohexylmethylene)‐4‐oxo‐4,5‐dihydrothiazol‐2‐yl)naphthalene‐1‐sulfonamide] |  |  | IC50 ([1]; Table 3, library 3, n = 1 unless otherwise stated (41, 42: n = 2), '–' = not active at 100 μM, read-out: Dynamin 1 IC50): > 100 µM |
| CCCCCCC/C=C1\SC(NS(=O)(=O)c2cccc3ccccc23)=NC1=O [compound 43, (Z)‐N‐(5‐octylidene‐4‐oxo‐4,5‐dihydrothiazol‐2‐yl)naphthalene‐1‐sulfonamide] |  |  | IC50 [2, 8]: 5.9 µM |

Second part, led by results:

| IC50 [1, 3] [µM] | IC50 [1, 6] [µM] | SMILES | also measured |
| --- | --- | --- | --- |
| > 150 |  | O=C1N=C(NS(=O)(=O)c2cccc3ccccc23)S/C1=C\c1ccccc1O [compound 8, (Z)‐N‐(5‐(2‐hydroxybenzylidene)‐4‐oxo‐4,5‐dihydrothiazol‐2‐yl)naphthalene‐1‐sulfonamide] | IC50 [2, 4]: 2.1 µM |
| > 150 |  | N#Cc1ccc(/C=C2\SC(NS(=O)(=O)c3cccc4ccccc34)=NC2=O)cc1 [compound 11, (Z)‐N‐(5‐(4‐cyanobenzylidene)‐4‐oxo‐4,5‐dihydrothiazol‐2‐yl)naphthalene‐1‐sulfonamide] |  |
| > 150 |  | N#Cc1cccc(/C=C2\SC(NS(=O)(=O)c3cccc4ccccc34)=NC2=O)c1 [compound 12, (Z)‐N‐(5‐(3‐cyanobenzylidene)‐4‐oxo‐4,5‐dihydrothiazol‐2‐yl)naphthalene‐1‐sulfonamide] | IC50 [2, 4]: 5.7 µM |
| > 150 |  | O=C1N=C(NS(=O)(=O)c2cccc3ccccc23)SC1=Cc1ccccc1-c1ccccc1 [compound 16, N‐(5‐([1,1'‐biphenyl]‐2‐ylmethylene)‐4‐oxo‐4,5‐dihydrothiazol‐2‐yl)naphthalene‐1‐sulfonamide] |  |
| > 150 |  | O=C1N=C(NS(=O)(=O)c2cccc3ccccc23)SC1=Cc1cccc(-c2ccccc2)c1 [compound 17, N‐(5‐([1,1'‐biphenyl]‐3‐ylmethylene)‐4‐oxo‐4,5‐dihydrothiazol‐2‐yl)naphthalene‐1‐sulfonamide] | IC50 [2, 4]: 4.02 µM |
| 93 ± 2.5 |  | CC(=O)Nc1ccc(/C=C2\SC(NS(=O)(=O)c3cccc4ccccc34)=NC2=O)cc1 [compound 19, (Z)‐N‐(4‐((2‐(naphthalene‐1‐sulfonamido)‐4‐oxothiazol‐5(4H)‐ylidene)methyl)phenyl)acetamide] | IC50 [1, 5]: 92.7 µM; IC50 [2, 4]: 3.5 µM |
|  | 61.2 ± 7.5 | O=C1N=C(NS(=O)(=O)c2cccc3ccccc23)S/C1=C\c1ccc(O)cc1O [compound 25, (Z)‐N‐(5‐(2,4‐dihydroxybenzylidene)‐4‐oxo‐4,5‐dihydrothiazol‐2‐yl)naphthalene‐1‐sulfonamide] |  |
|  | 70 ± 5.3 | O=C1N=C(NS(=O)(=O)c2cccc3ccccc23)S/C1=C\c1cc(O)ccc1O [compound 26, (Z)‐N‐(5‐(2,5‐dihydroxybenzylidene)‐4‐oxo‐4,5‐dihydrothiazol‐2‐yl)naphthalene‐1‐sulfonamide] |  |
|  | > 100 | COc1ccc(/C=C2\SC(NS(=O)(=O)c3cccc4ccccc34)=NC2=O)c(OC)c1 [compound 30, (Z)‐N‐(5‐(2,4‐dimethoxybenzylidene)‐4‐oxo‐4,5‐dihydrothiazol‐2‐yl)naphthalene‐1‐sulfonamide] | IC50 [2, 7]: 1 µM |
|  | > 100 | COc1cc(/C=C2\SC(NS(=O)(=O)c3cccc4ccccc34)=NC2=O)cc(OC)c1 [compound 32, (Z)‐N‐(5‐(3,5‐dimethoxybenzylidene)‐4‐oxo‐4,5‐dihydrothiazol‐2‐yl)naphthalene‐1‐sulfonamide] |  |
|  | > 100 | O=C1N=C(NS(=O)(=O)c2cccc3ccccc23)S/C1=C\c1ccc(F)c(F)c1 [compound 38, (Z)‐N‐(5‐(3,4‐difluorobenzylidene)‐4‐oxo‐4,5‐dihydrothiazol‐2‐yl)naphthalene‐1‐sulfonamide] |  |
